The target of the assay is T1, Tyrosine-protein phosphatase non-receptor type 11 (Homo sapiens) (UniProt Q06124).
T1 sequence (whole entry): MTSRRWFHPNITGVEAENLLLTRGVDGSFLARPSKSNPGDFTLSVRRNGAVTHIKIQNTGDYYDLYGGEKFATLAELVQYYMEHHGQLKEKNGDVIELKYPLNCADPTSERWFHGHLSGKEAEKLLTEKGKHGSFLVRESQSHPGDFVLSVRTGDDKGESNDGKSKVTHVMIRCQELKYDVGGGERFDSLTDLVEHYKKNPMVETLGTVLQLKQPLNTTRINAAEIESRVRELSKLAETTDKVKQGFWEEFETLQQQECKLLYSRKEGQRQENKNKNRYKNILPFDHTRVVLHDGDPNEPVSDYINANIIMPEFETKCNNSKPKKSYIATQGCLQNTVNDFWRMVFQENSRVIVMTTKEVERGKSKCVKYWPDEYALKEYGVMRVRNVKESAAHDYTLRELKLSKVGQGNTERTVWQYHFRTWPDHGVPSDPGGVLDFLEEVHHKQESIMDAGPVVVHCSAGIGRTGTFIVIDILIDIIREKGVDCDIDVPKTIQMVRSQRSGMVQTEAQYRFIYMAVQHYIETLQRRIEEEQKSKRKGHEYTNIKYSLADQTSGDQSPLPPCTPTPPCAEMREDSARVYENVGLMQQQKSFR
Particulars: filed as negative allosteric modulator.
Description: Allosteric inhibition of recombinant human SHP2 assessed as change in melting temperature by SYPRO orange dye based thermal shift assay
For `CC1(N)CCN(c2cnc(Sc3cccc(Cl)c3Cl)c(N)n2)CC1`, the ΔTm (usually the shift of the melting midpoint relative to a reference) is 6.24 °C.
Consider `CC1(N)CCN(c2cnc(Sc3ccccc3F)c(N)n2)CC1`, for which the thermal shift (ΔTm) worked out at 2.88 °C.
With `CC1(N)CCN(c2cnc(Sc3ccc(Cl)cc3)c(N)n2)CC1`, the ΔTm was 0.43 °C.
On to `CC1(CN)CCN(c2cnc(Sc3cccc(Cl)c3Cl)c(N)n2)CC1`, for which the shift in melting temperature (ΔTm) was 7.01 °C.
As for `CC1(N)CCN(c2cnc(SC3CCCCC3)c(N)n2)CC1`, the ΔTm worked out at 0.88 °C.
Next, `Nc1nc(N2CCNCC2)cnc1-c1cccc(Cl)c1Cl`: 3.01 °C; `Nc1nc(N2CCC(O)CC2)cnc1-c1cccc(Cl)c1Cl`: 0.36 °C; `COc1ccccc1Sc1ncc(N2CCC(C)(N)CC2)nc1N`: 3.79 °C.
Next, `CC1(N)CCN(c2cnc(Sc3ccccc3C(F)(F)F)c(N)n2)CC1`: 3.45 °C; `Nc1nc(N2CC[C@H](N)C2)cnc1-c1cccc(Cl)c1Cl`: 1.92 °C.
The figure for `CN1CCN(c2cnc(-c3cccc(Cl)c3Cl)c(N)n2)CC1` is 3.2 °C; for `CC1(N)CCN(c2cnc(-c3ccc(C#N)cc3)c(N)n2)CC1` it is 0.275 °C.
On to `CN(CCN)c1cnc(-c2cccc(Cl)c2Cl)c(N)n1`, for which the ΔTm turned out to be 1.06 °C.
In the case of `CC1(N)CCN(c2cnc(SCc3ccccc3Cl)c(N)n2)CC1`, the thermal shift (ΔTm) was 0.44 °C.
For the compound `Nc1nc(N2CCC(N)CC2)cnc1-c1cccc(Cl)c1Cl`, the ΔTm is 1.72 °C.
On to `CC1(N)CCN(c2cnc(Sc3ccccc3Br)c(N)n2)CC1`, for which the ΔTm is 4.47 °C.
On to `CC1(N)CCN(c2cnc(Sc3cccc4ccccc34)c(N)n2)CC1`, for which the ΔTm was 3.6 °C.
`NCCC1CCN(c2cnc(-c3cccc(Cl)c3Cl)c(N)n2)CC1`: the thermal shift (ΔTm) was 2.31 °C.
In the case of `Cc1ccccc1Sc1ncc(N2CCC(C)(N)CC2)nc1N`, the shift in melting temperature (ΔTm) worked out at 1.75 °C.
Turning to `CC1(O)CCN(c2cnc(-c3cccc(Cl)c3Cl)c(N)n2)CC1`, the ΔTm was determined as 0.435 °C.
With `Cc1ccc(-c2ncc(N3CCC(C)(N)CC3)nc2N)cc1`, the thermal shift (ΔTm) worked out at 0.42 °C.
Take `CC1(N)CCN(c2cnc(Sc3cccc(Cl)c3)c(N)n2)CC1`: the ΔTm stood at 1.7 °C.
Consider `CC1(N)CCN(c2cnc(-c3cccc(Cl)c3Cl)c(N)n2)CC1`, for which the ΔTm worked out at 4.37 °C.
The figure for `CC1(N)CCN(c2cnc(Sc3ccccc3Cl)c(N)n2)CC1` is 4.13 °C; for `CNC1CCN(c2cnc(-c3cccc(Cl)c3Cl)c(N)n2)CC1` it is 3.06 °C; for `CC1(N)CCN(c2cnc(Sc3ccccc3)c(N)n2)CC1` it is 1.72 °C.
The figure for `NCC1CCN(c2cnc(-c3cccc(Cl)c3Cl)c(N)n2)CC1` is 3.67 °C; for `CC1(N)CCN(c2cnc(SCc3ccccc3)c(N)n2)CC1` it is 0.38 °C; for `NCC1CCN(c2cnc(Sc3cccc(Cl)c3Cl)c(N)n2)CC1` it is 4.93 °C.
Next, `CC1(N)CCN(c2cnc(-c3cccc(F)c3F)c(N)n2)CC1`: 0.52 °C; `CC1(N)CCN(c2cnc(Sc3ccc4ccccc4c3)c(N)n2)CC1`: 2.23 °C.

For the origin of these results see ChEMBL document CHEMBL5143569.
